ChEMBL document CHEMBL1127254, “Induction of endonucleolytic DNA fragmentation and apoptosis by the duocarmycins” (Bioorg Med Chem Lett, 1994)

Legend:
MOLT-4 [1] = test: Induced cell death in Molt-4 cell line at a dose of E-9 M after 28 hour of incubation; assay type: functional, Homo sapiens
MOLT-4 [2] = test: Induced cell death in Molt-4 cell line at a dose of E-9 M after 3 hour of incubation; assay type: functional, Homo sapiens
MOLT-4 [3] = test: Induced cell death in Molt-4 cell line at a dose of E-9 M after 5 hour of incubation; assay type: functional, Homo sapiens
MOLT-4 [4] = test: Induced cell death in Molt-4 cell line at a dose of E-9 M after 8 hour of incubation; assay type: functional, Homo sapiens
MOLT-4 [5] = test: Induced cell death in Molt-4 cell line at a dose of E-10 M after 1 hour of incubation; assay type: functional, Homo sapiens
MOLT-4 [6] = test: Induced cell death in Molt-4 cell line at a dose of E-10 M after 20 hour of incubation; assay type: functional, Homo sapiens
MOLT-4 [7] = test: Induced cell death in Molt-4 cell line at a dose of E-10 M after 28 hour of incubation; assay type: functional, Homo sapiens
MOLT-4 [8] = test: Induced cell death in Molt-4 cell line at a dose of E-10 M after 3 hour of incubation; assay type: functional, Homo sapiens
MOLT-4 [9] = test: Induced cell death in Molt-4 cell line at a dose of E-10 M after 5 hour of incubation; assay type: functional, Homo sapiens
MOLT-4 [10] = test: Induced cell death in Molt-4 cell line at a dose of E-10 M after 8 hour of incubation; assay type: functional, Homo sapiens
MOLT-4 [11] = test: Induced cell death in Molt-4 cell line at a dose of E-8 M after 1 hour of incubation; assay type: functional, Homo sapiens
MOLT-4 [12] = test: Induced cell death in Molt-4 cell line at a dose of E-8 M after 20 hour of incubation; assay type: functional, Homo sapiens
MOLT-4 [13] = test: Induced cell death in Molt-4 cell line at a dose of E-8 M after 28 hour of incubation; assay type: functional, Homo sapiens
MOLT-4 [14] = test: Induced cell death in Molt-4 cell line at a dose of E-8 M after 3 hour of incubation; assay type: functional, Homo sapiens
MOLT-4 [15] = test: Induced cell death in Molt-4 cell line at a dose of E-8 M after 8 hour of incubation; assay type: functional, Homo sapiens
MOLT-4 [16] = test: Induced cell death in Molt-4 cell line at a dose of E-9 M after 1 hour of incubation; assay type: functional, Homo sapiens
MOLT-4 [17] = test: Induced cell death in Molt-4 cell line at a dose of E-9 M after 20 hour of incubation; assay type: functional, Homo sapiens
[18] = Mean concentration required for the compound to inhibit tumor activity in 20 different cell lines was determined; assay type: functional
MOLT-4 [19] = test: Induced cell death in Molt-4 cell line at a dose of E-8 M after 5 hour of incubation; assay type: functional, Homo sapiens

Row | SMILES | Viability (MOLT-4 [1]) | Viability (MOLT-4 [2]) | Viability (MOLT-4 [3]) | Viability (MOLT-4 [4]) | Viability (MOLT-4 [5]) | Viability (MOLT-4 [6]) | Viability (MOLT-4 [7]) | Viability (MOLT-4 [8]) | Viability (MOLT-4 [9]) | Viability (MOLT-4 [10]) | Viability (MOLT-4 [11]) | Viability (MOLT-4 [12]) | Viability (MOLT-4 [13]) | Viability (MOLT-4 [14]) | Viability (MOLT-4 [15]) | Viability (MOLT-4 [16]) | Viability (MOLT-4 [17]) | IC50 [18] | Viability (MOLT-4 [19])
1 | COC(=O)c1cc2c([nH]1)C(=O)C=C1N(C(=O)c3cc4cc(OC)c(OC)c(OC)c4[nH]3)C[C@H]3C[C@]123 [DUOCARMYCIN] | 12% | 95% | 85% | 52% | 95% | 58% | 58% | 95% | 90% | 65% | 95% | 10% | 10% | 92% | 42% | 95% | 15% | 0.1 nM | 80%
2 | COC(=O)[C@]1(C)Nc2c(O)cc3c(c2C1=O)[C@H](CCl)CN3C(=O)c1cc2cc(OC)c(OC)c(OC)c2[nH]1 |  |  |  |  |  |  |  |  |  |  |  |  |  |  |  |  |  | 20 nM | 
